Assay results reported in paper PMC9000871, “Rhodamine 101 Conjugates of Triterpenoic Amides Are of Comparable Cytotoxicity as Their Rhodamine B Analogs” (Molecules, 2022).

Columns and labels:
[1] = system: A375 (melanoma); assay: SRB cytotoxicity assay, A375; type: cell-based, human; details: 72 h of treatment, mean ± standard mean error
From the text: (§1) The cell lines were obtained from Department of Oncology (Martin-Luther-University Halle Wittenberg; they were bought from ATCC; A 375 (CRL-1619), HT29 (HTB-38), MCF7 (HTM-22), A2780 (HTP-77), FaDu (HTP-43), NIH 3T3 (CRL-1658), HEK-293 (CRL-1573)). Cultures were maintained as monolayers in RPMI 1640 medium with L-glutamine (Capricorn Scientific GmbH, Ebsdorfergrund, Germany) supplemented with 10% heat inactivated fetal bovine serum (Sigma-Aldrich Chemie GmbH, Steinheim, Germany) and penicillin/streptomycin (1%, Capricorn Scientific GmbH, Ebsdorfergrund, Germany) at 37 °C in a humidified atmosphere with 5% CO2. The cytotoxicity of the compounds was evaluated using the sulforhodamine-B (Kiton-Red S, ABCR) micro culture colorimetric assay using confluent cells in 96-well plates with the seeding of the cells on day 0 applying appropriate cell densities to prevent confluence of the cells during the period of the experiment. On day 1, the cells were treated with six different concentrations (1, 3, 7, 12, 20, and 30 μM); thereby, the final concentration of DMSO was always <0.5%, generally regarded as non-toxic to the cells. On day 4, the supernatant medium was discarded; the cells were fixed with 10% trichloroacetic acid. After another day at 4 °C, the cells were washed in a strip washer and dyed with the SRB solution (100 μL, 0.4% in 1% acetic acid) for about 20 min to be followed by washing of the plates (four times, 1% acetic acid) and air-drying overnight. Furthermore, tris base solution (200 μL, 10 mM) was added to each well and absorbance was measured at λ = 570 nm employing a reader (96 wells, Tecan Spectra, Crailsheim, Germany). The EC50 values were averaged from three independent experiments performed each in triplicate calculated from semi logarithmic dose response curves applying a non-linear four-parameter Hills-slope equation (GraphPad Prism5; variables top and bottom were set to 100 and 0, respectively).

[2] = system: HT29 (colon adenocarcinoma); assay: SRB cytotoxicity assay, HT29; type: cell-based, human; details: 72 h of treatment, mean ± standard mean error
From the text: as §1

[3] = system: MCF-7 (breast adenocarcinoma); assay: SRB cytotoxicity assay, MCF-7; type: cell-based; details: Homo sapiens, MCF7, 72 h of treatment, mean ± standard mean error
From the text: as §1

[4] = system: A2780 (ovarian carcinoma); assay: SRB cytotoxicity assay, A2780; type: cell-based; details: Homo sapiens, 72 h of treatment, mean ± standard mean error
From the text: as §1

[5] = system: FaDu (hypopharyngeal carcinoma); assay: SRB cytotoxicity assay, FaDu; type: cell-based; details: Homo sapiens, 72 h of treatment, mean ± standard mean error
From the text: as §1

[6] = system: NIH 3T3 (fibroblasts), non-malignant; assay: SRB cytotoxicity assay, NIH 3T3; type: cell-based; details: Mus musculus, NIH3T3, 72 h, 72 h of treatment, mean ± standard mean error
From the text: as §1

Compound	EC50 ([1]; Homo sapiens, A-375, 72 h)	EC50 ([2]; Homo sapiens, HT-29, 72 h)	EC50 [3]	EC50 [4]	EC50 [5]	EC50 [6]	EC50 [1]	melting point	EC50 [2]
CC1(C)CC[C@]2(C(=O)O)CC[C@]3(C)C(=CC[C@@H]4[C@@]5(C)CC[C@H](O)C(C)(C)[C@@H]5CC[C@]43C)[C@@H]2C1 [OA, oleanolic acid, reference compound]	> 30000 nM	> 30000 nM	> 30000 nM	> 30000 nM	> 30000 nM	> 30000 nM	–	–	–
C=C(C)[C@@H]1CC[C@]2(C(=O)O)CC[C@]3(C)[C@H](CC[C@@H]4[C@@]5(C)CC[C@H](OC(C)=O)C(C)(C)[C@@H]5CC[C@]43C)[C@@H]12 [compound 1, 3β-Acetyloxy-lup-20(29)-en-28-oic Acid]	21300 nM	21300 ± 2000 nM	11000 ± 500 nM	18300 ± 500 nM	7200 ± 1200 nM	> 30000 nM	19200 ± 1700 nM	–	–
CC(=O)O[C@H]1CC[C@@]2(C)C(CC[C@]3(C)C2CC=C2C4[C@@H](C)[C@H](C)CC[C@]4(C(=O)N4CCCNCC4)CC[C@]23C)C1(C)C (stereo partly drawn) [compound 11, 3β-Acetyloxy28-(1-homopierazinyl)-urs-12-en-28-one]	3200 ± 200 nM	2000 ± 100 nM	2400 ± 100 nM	2900 ± 240 nM	–	900 ± 100 nM	–	171 to 175 °C	–
CC(=O)O[C@H]1CC[C@@]2(C)C(CC[C@]3(C)C2CC=C2C4CC(C)(C)CC[C@]4(C(=O)N4CCCNCC4)CC[C@]23C)C1(C)C (stereo partly drawn) [compound 10, 3β-Acetyloxy-28-(1-homopiperazinyl)-olean-12-en-28-one]	1900 ± 900 nM	1900 ± 100 nM	1600 ± 100 nM	2200 ± 100 nM	–	1800 ± 200 nM	–	182 to 185 °C	–
CC(=O)O[C@H]1CC[C@@]2(C)C(CC[C@]3(C)C2CC=C2C4[C@@H](C)[C@H](C)CC[C@]4(C(=O)N4CCNCC4)CC[C@]23C)C1(C)C (stereo partly drawn) [compound 7, 3β-Acetyloxy-28-(1-piperazinyl)-urs-12-en-28-one]	2000 ± 400 nM	1900 ± 300 nM	1700 ± 200 nM	2100 ± 100 nM	–	2100 ± 100 nM	–	187 to 190 °C	–
CC(=O)O[C@H]1CC[C@@]2(C)C(CC[C@]3(C)C2CC=C2C4CC(C)(C)CC[C@]4(C(=O)N4CCNCC4)CC[C@]23C)C1(C)C (stereo partly drawn) [compound 6, 3β-Acetyloxy-28-(1-piperazinyl)-olean-12-en-28-one]	1400 ± 200 nM	1300 ± 100 nM	1700 ± 200 nM	1700 ± 100 nM	–	1700 ± 100 nM	–	172 to 175 °C	–
CC(=O)O[C@H]1CC[C@@]2(C)C(CC[C@]3(C)C2CCC2C4[C@H](C(C)=O)CC[C@]4(C(=O)N4CCCNCC4)CC[C@]23C)C1(C)C (stereo partly drawn) [compound 12, 3β-Acetyloxy-28-(1-homopiperazinyl)-30-norlupane-20,28-dione]	900 ± 100 nM	2300 ± 200 nM	1800 ± 200 nM	1600 ± 100 nM	–	600 ± 100 nM	–	162 to 165 °C	–
COc1cccc2c1C(=O)c1c(O)c3c(c(O)c1C2=O)C[C@@](O)(C(=O)CO)C[C@@H]3O[C@H]1C[C@H](N)[C@H](O)[C@H](C)O1 [DX, doxorubicin, reference compound]	–	900 ± 200 nM	1100 ± 300 nM	20 ± 10 nM	1700 ± 300 nM	–	–	–	–
C[C@H]1[C@H](C)CC[C@]2(C(=O)O)CC[C@]3(C)C(=CC[C@@H]4[C@@]5(C)CC[C@H](O)C(C)(C)[C@@H]5CC[C@]43C)[C@H]12 [UA, ursolic acid, reference compound]	15400 ± 1000 nM	–	–	–	18200 ± 1700 nM	–	–	–	–
CC(=O)O[C@H]1CC[C@@]2(C)C(CC[C@]3(C)C2CCC2C4[C@H](C(C)=O)CC[C@]4(C(=O)N4CCNCC4)CC[C@]23C)C1(C)C (stereo partly drawn) [compound 8, 3β-Acetyloxy-28-(1-piperazinyl)-30-norlupane-20,28-dione]	1900 ± 400 nM	3860 nM	2700 ± 300 nM	2600 ± 400 nM	–	1300 ± 100 nM	–	127 to 130 °C	3900 ± 200 nM
